Assay results taken from US9200301B2, “Marine streptomyces, pyranosesquiterpene compound, as well as preparation method and applications thereof” (SOUTH CHINA SEA INSTITUTE OF OCEANOLOGY, CHINESE ACADEMY OF …, priority 2011, dated 2015).
≈ marks a conversion by molar mass, not a printed value. Entries after “also recorded” stand apart in the source; their conditions may differ. Read-outs that look alike come from different tables or passages of the source.

Tests used:
[1] = test system: Escherichia coli; assay: Anti-Escherichia coli activity test (paper sheet / dilution multiple method); type: cell-based
Protocol: The samples are preliminarily tested and compared with the positive control, namely the rifampicin under the situation that each sample is 100 μg/tablet and the rifampicin taken as a standard product is 1 μg/tablet.

[2] = test system: Artemia larvae; assay: Artemia larva lethal test; type: in vivo; conditions: for LC50: Artemia larvae, 24 h at room temperature, from corrected mortality; for LC50 value: against Artemia larvae; for lethal Artemia activity (in words): in vivo
Protocol: (§1) Hatching of Artemia larvae: placing 100 mg of Artemia eggs in a 500 mL beaker, adding 400 mL of artificial sea water, inflating air slowly by using a small inflator pump, hatching at room temperature for 24 h, removing egg shells and the unhatched eggs, and continuously culturing the Artemia larvae for 24 h for later use.
(§2) The biological lethal method of the Artemia larvae is as follows: taking a 96-well cell culture plate according to a Solis improvement method, and adding 2004, of artificial sea water solution containing 10-15 Artemia in each well to prepare a test culture plate. […] A blank control group and sample groups of each concentration are respectively provided with three parallel holes, 54, of the sample solvent (DMSO) is added for the blank control group, 54, of the sample solutions of different concentrations are respectively added into the sample groups, and the final concentrations are 500 μg/mL, 50 μg/mL and 5 μg/mL respectively. The culture is performed at room temperature for 24 h, and then the number of dead individuals of the Artemia larvae is detected and counted under a binocular dissecting microscope. The biological lethal activity of the Artemia larvae is represented by corrected mortality and is calculated according to the following formula: Corrected mortality=(survival rate of control group−survival rate of treated group)/survival rate of control group×100%
(§3) The three concentrations and the corresponding corrected mortalities are input into a computer for respectively calculating LC50 and 95% confidence interval thereof.

[3] = test system: Vibrio anguillarum; conditions: cited from earlier work; for MIC: against Vibrio anguillarum, values of compounds 2, 3 and 4 referred to Fdhila F et al., Journal of Natural Products, 2003, 66 (10): 1299-1301; for activity against Vibrio anguillarum (in words): compounds 2-4, based on Fdhila F et al.
[4] = test system: Vibrio anguillarum; assay: Anti-Vibrio anguillarum activity test (paper sheet / dilution multiple method); type: cell-based
Protocol: The samples are preliminarily tested under the situation that each sample is 100 μg/tablet, and the samples are found to have better activities. Then a dilution multiple method is adopted for testing the MIC values (the diameters of the paper sheets are 6 mm, 6-10 mm means weak activity, 10-15 mm means medium activity and 15 mm or more means strong activity).

[5] = Artemia larva lethal test; type: in vivo; conditions: Artemia (brine shrimp) larvae, in vivo; against Artemia larvae
Protocol: as §1, §2, §3

CC(C)C[C@H]1NC(=O)[C@H]2CCCN2C1=O [compound 3, Cyclo(D)-Pro-(D)-Leu]
inhibitory activity against Escherichia coli (in words) [1]: weaker | LC50 [2]: 87.63 µg/mL (≈ 417 µM) | LC50 value [2]: 87.63 µg/mL (≈ 417 µM) | lethal Artemia activity (in words) [2]: better lethal Artemia activity | MIC [3]: 0.04 µg/mL (≈ 0.19 µM) | activity against Vibrio anguillarum (in words) [3]: better inhibitory activity; also recorded: great bactericidal activity

O=C1N[C@H](Cc2ccccc2)C(=O)N2C[C@@H](O)C[C@H]12 (relative stereo) [compound 4, Cyclo(D)-trans-4-OH-Pro-(D)-Phe]
inhibitory activity against Escherichia coli (in words) [1]: weaker | LC50 [2]: 13.45 µg/mL (≈ 51.7 µM) | LC50 value [2]: 13.45 µg/mL (≈ 51.7 µM) | lethal Artemia activity (in words) [2]: better lethal Artemia activity | MIC [3]: 0.07 µg/mL (≈ 0.269 µM) | activity against Vibrio anguillarum (in words) [3]: better inhibitory activity; also recorded: great bactericidal activity

CCCCCC/C=C/CCC1C=CCC(=O)O1 (stereo not shown) [compound 1]
MIC ([4]; against Vibrio anguillarum, LB medium, 37° C., observed after 24 h): > 100 µg/mL | inhibitory activity against Vibrio anguillarum (in words) ([4]; compound 1): weaker | inhibitory activity against Escherichia coli (in words) [1]: better inhibitory activity | MIC ([1]; against Escherichia coli, LB medium, 37° C., observed after 24 h, read-out: MIC): 1.58 µg/mL (≈ 6.68 µM) | MIC ([1]; anti-Escherichia coli activity, read-out: MIC (minimal inhibitory concentration) value): 1.58 µg/mL (≈ 6.68 µM) | LC50 at 24 h [5]: 3.25 µg/mL (≈ 13.8 µM) | lethal Artemia activity (in words) [2]: better lethal Artemia activity; also recorded: very good

CC[C@@H](C)[C@H]1NC(=O)[C@H]2CCCN2C1=O [compound 2, Cyclo(D)-Pro-(D)-Ile]
inhibitory activity against Escherichia coli (in words) [1]: weaker | LC50 [2]: 55.67 µg/mL (≈ 265 µM) | LC50 value [2]: 55.67 µg/mL (≈ 265 µM) | lethal Artemia activity (in words) [2]: better lethal Artemia activity | MIC [3]: 0.05 µg/mL (≈ 0.238 µM) | activity against Vibrio anguillarum (in words) [3]: better inhibitory activity; also recorded: great bactericidal activity
